Values quoted from earlier work, collected in patent US20020022024A1, “Hemoglobinase inhibitors and methods of use” (priority 2000, published 2002).

Tests used:
[1] = tested on: schistosomules; details: added to culture media, in comparison to controls; Zerda et al. 1988
[2] = molecular target: T1, S. mansoni cathepsin B, Sm31 (Schistosoma mansoni, UniProt P25792); details: short synthetic substrate; Klinkert et al. 1994
T1 sequence (P25792 89-340): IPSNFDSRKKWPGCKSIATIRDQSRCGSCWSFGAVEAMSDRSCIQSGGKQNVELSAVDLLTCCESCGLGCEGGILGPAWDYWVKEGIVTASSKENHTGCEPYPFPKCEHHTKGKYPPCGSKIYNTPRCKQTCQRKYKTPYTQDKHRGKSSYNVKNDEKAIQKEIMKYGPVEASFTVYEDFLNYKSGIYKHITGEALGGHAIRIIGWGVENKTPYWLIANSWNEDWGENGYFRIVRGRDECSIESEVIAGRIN

| SMILES | death rate of schistosomules [1] | inhibitor potency on Sm31 relative to a derivative of E64 [2] |
| --- | --- | --- |
| CC(C)C[C@H](NC(=O)[C@H]1O[C@@H]1C(=O)O)C(=O)NCCCCN [EP459] | increased the death rate of schistosomules |  |
| CSCCC(NC(=O)C(Cc1c[nH]c2ccccc12)NC(=O)OCc1ccccc1)C(=O)C=[N+]=[N-] (stereo not drawn) [Z-Trp-Met-CHN2] |  | more potent inhibitor of Sm31 |
